How the values were obtained:
[1] = tested on: wt and cTnI-G203S cardiac myocytes; experiment: Mitochondrial membrane potential (JC-1) after in vitro peptide exposure; assay type: cell-based, mouse; conditions: 10 μM BayK(−), calcium-free HBS
Method: Fluorescence was measured on a Hamamatsu Orca ER digital camera attached to an inverted Nikon TE2000-U microscope. Fluorescent indicator 5,5′,6,6′-tetrachloro-1,1′,3,3′-tetraethylbenzimidazolylcarbocyanine iodide was used to measure Ψm in cardiac myocytes, as previously described (JC-1, Molecular Probes) ([61]). Autofluorescence was used to measure flavoprotein oxidation in cardiac myocytes based on previously described methods ([13], [29], [62]). Responses to drugs were reported as a percentage increase from the basal average. Detailed methods are provided in SI Appendix.
Supporting Materials and Methods
Isolation of ventricular myocytes
Myocytes were isolated from wt and cTnI-G203S mice. Animals were anesthetized with pentobarbitone sodium (240 mg/kg) via intraperitoneal injection prior to excision of the heart. Cells were isolated as previously described (1-3). Mouse hearts were excised, cannulated onto a Langendorff apparatus via the aorta, and perfused with Krebs-Henseleit Buffer (KHB) containing […]
O2/CO2 at 37°C) for 4 min at 37°C. Hearts were then perfused with KHB supplemented with 2.4 mg/ml collagenase B for 3 min, followed by a further 8 min perfusion in the presence of 40 μM calcium. Following perfusion, aorta and atria were removed then ventricles teased apart and triturated to dissociate myocytes into suspension. Myocyte suspension was spun at 500 RPM for 3 min, supernatant discarded, and myocytes resuspended in calcium free Hepes-Buffered Solution […]
Hepes and 2 glutamine (pH = 7.4 at 37°C) in the presence or absence of 3 mM EGTA (for 0 mM calcium experiments). For calcium containing experiments, calcium was titrated back to achieve a final extracellular concentration of 1.8 mM. […]
Axopatch 200B voltage-clamp amplifier (Molecular Devices) with a Digidata 1440A interface and pClamp10.5 software (Molecular Devices). A Ag/AgCl electrode was used to ground the bath. Once the whole-cell configuration was achieved, the holding potential was set at –80 mV. […]
For calcium transient studies, microelectrodes contained (in mM): KCl 20, NaCl 10, MgCl2 2, CaCl2 0.03, potassium L-glutamate 120, EGTA 0.1, HEPES 5 and MgATP 5 (pH adjusted to 7.2 at 37°C with NaOH) supplemented with 2 µM Fura-2 AM (Fura-2, Molecular Probes, Eugene, Oregon). […]
NaCl 140, KCl 5.4, CaCl2 1, MgCl2 0.5, HEPES 5.5 and glucose 11 (pH adjusted to 7.6 with NaOH), […]
Fluorescence was measured on a Hamamatsu Orca ER digital camera attached to an inverted Nikon TE2000-U microscope. […]
Additionally, individual 580 nm and 535 nm wavelength signals were assessed in each experiment to determine whether the fluorescent indicator was accurately measuring Ψm. […] Ratiometric JC-1 or flavoprotein fluorescent signals were quantified by manually tracing myocytes and subtracting an equivalent background region […]

[2] = tested on: myocytes isolated from wt and cTnI-G203S mice; experiment: MTT assay (formation of formazan) in myocytes isolated from treated mice; assay type: in vivo, mouse; conditions: myocytes from precardiomyopathic cTnI-G203S mice treated 10 μM i.p. 3×/wk/5 wk from 20 wk
Method: The rate of reduction of MTT (Sigma-Aldrich) to formazan by the mitochondrial electron transport chain was measured in intact mouse cardiac myocytes, as previously described ([22], [25]). Each n represents number of replicates for each treatment group from cardiac myocytes isolated from a total of six wt [AID(S)-TAT], four cTnI-G203S [AID(S)-TAT], and three (AID-TAT) mice. Detailed methods are provided in SI Appendix. […]
The rate of reduction of 3-(4,5-Dimethyl-2-thiazolyl)-2,5-diphenyl-2H-tetrazolium bromide (MTT, Sigma-Aldrich, St. Louis, Missouri) to formazan by the mitochondrial electron transport chain was measured in intact mouse cardiac myocytes as previously described (1, 9). This reaction is dependent upon the presence of reduced nicotinamide adenine dinucleotide (NADH) and reduced nicotinamide adenine dinucleotide phosphate (NADPH), and intact mitochondrial electron transport (10). Cardiac myocytes were treated with relevant drugs in 96 well plates. MTT was added to each well to a final concentration of 0.5 mg/ml and the rate of the increase in absorbance immediately measured using a spectrophotometer at 37°C (PowerWave XS, 570 nm, reference wavelength of 620 nm). The rate of the increase in absorbance in response to treatments was expressed as a percentage of the rate of the increase prior to the addition of treatments. Each n represents number of replicates for each treatment group from cardiac myocytes isolated from a total of 6 wt (AID[S]- TAT), 4 cTnI-G203S (AID[S]-TAT), and 3 (AID-TAT) mice.
Immunoblot of ICa-L protein

Sequence: QQLEEDLKGYLDWITQAE [AID-TAT]
- increase in Ψm (JC-1) in response to BayK(−) ([1]; cTnI-G203S myocytes, 1 μM peptide in vitro): attenuated the response
- increase in Ψm (JC-1) in response to BayK(−) ([1]; cTnI-G203S myocytes, 10 μM peptide in vitro): significantly attenuated the response
- increase in Ψm (JC-1) in response to BayK(−) ([1]; wt myocytes, 1 μM peptide in vitro): attenuated the response in cTnI-G203S but not wt myocytes
- increase in Ψm (JC-1) in response to BayK(−) ([1]; wt myocytes, 10 μM peptide in vitro): significantly attenuated the response
- increase in metabolic activity (formazan from MTT) following BayK(−) [2]: reduced this response to a level comparable to that observed in wt myocytes

Source: paper PMC7502707, “Characterization and validation of a preventative therapy for hypertrophic cardiomyopathy in a murine model of the disease” (Proceedings of the National Academy of Sciences of the …, 2020)
